# Laboratory results as given in patent US20130052280A1, “USE OF THEBROMINE FOR LOWERING CENTRAL BLOOD PRESSURE” (priority 2010, published 2013).
# Columns and labels:
# [1] = tested on: untreated prehypertensive males and females; assay: 24-hour ambulatory blood pressure and heart rate (peripheral BP at the brachial artery), randomised controlled cross-over study; assay type: in vivo, humans; conditions: for some time after ingestion
# Method: In a randomised controlled cross-over study with 42 untreated prehypertensive males and females the effect of cocoa-containing drinks either high in polyphenols or high in polyphenols and theobromine was assessed on blood pressure (BP).
# The subjects consumed for 3 weeks daily (in the morning before breakfast) 200 ml acidified dairy drink as in table 1, with added to that 1) none (control drink), 2) 3.65 g cocoa powder (Acticoa, Barry-Callebaut) containing 500 mg polyphenols and 79 mg theobromine (amount in product specification Acticoa) and 3) 5 g cocoa powder containing 500 mg polyphenols and 79 mg theobromine plus added thereto 918 mg pure theobromine (Fagron, Ph. […]
# Peripheral BP was measured by 24-hours ambulatory BP at the brachial artery, while central blood pressure was measured by applanation tonometry at the radial artery, using a transfer function to estimate central pulse wave forms, systolic and diastolic BP (SBP and DBP, respectively), pulse pressure (SBP-DBP) and augmentation index. […]
# An automatic ambulatory BP monitor (Spacelabs 90207, Spacelabs In., Redmond, Wash., USA) was placed on the non-dominant arm in all subjects. Systolic and diastolic BP and heart rate (HR) were recorded over at least 24 h. […]
# Baseline data was expressed as mean plus standard deviation for variables with a parametric distribution and median plus range for variables with a skewed distribution. […]
# [2] = tested on: untreated prehypertensive males and females; assay: Central blood pressure by applanation tonometry at the radial artery (pulse wave analysis), randomised controlled cross-over study; assay type: in vivo, humans
# Method: In a randomised controlled cross-over study with 42 untreated prehypertensive males and females the effect of cocoa-containing drinks either high in polyphenols or high in polyphenols and theobromine was assessed on blood pressure (BP). The subjects consumed for 3 weeks daily (in the morning before breakfast) 200 ml acidified dairy drink as in table 1, with added to that 1) none (control drink), 2) 3.65 g cocoa powder (Acticoa, Barry-Callebaut) containing 500 mg polyphenols and 79 mg theobromine (amount in product specification Acticoa) and 3) 5 g cocoa powder containing 500 mg polyphenols and 79 mg theobromine plus added thereto 918 mg pure theobromine (Fagron, Ph. […] Peripheral BP was measured by 24-hours ambulatory BP at the brachial artery, while central blood pressure was measured by applanation tonometry at the radial artery, using a transfer function to estimate central pulse wave forms, systolic and diastolic BP (SBP and DBP, respectively), pulse pressure (SBP-DBP) and augmentation index. […] Augmentation index (AIx), defined as the ratio of augmentation to central pulse pressure, is expressed as a percentage: AIx=(ΔP/PP)×100, where P is pressure and PP is pulse pressure. […] Pulse pressure amplification (PPA) is expressed as the ratio of […]: PPA=PPP/CPP. […]
compound,measurement,setting,value
"Cn1cnc2c1c(=O)[nH]c(=O)n2C [theobromine, 3,7-dimethylxanthine]",heart rate after ingestion of the effective amount (in words),[1],elevated
same,peripheral BP after ingestion of the effective amount (in words),[1],elevated
same,reduction of central blood pressure compared to when theobromine is not ingested,[2]; ingestion in an effective amount,at least 2 mmHg
same,reduction of central BP,"[2]; single daily dose of 1000 mg theobromine, p=0.003",3.3%
